Test results from patent US11351168B1 (Celgene CAR LLC, priority 2008, dated 2022).

These molecules were tested on BTK signaling in Ramos cells (assay: BTK Ramos cellular assay (phosphorylation of BTK substrate PLCγ2)). Details: Homo sapiens, 1 hour compound, anti-IgM stimulation, read-out: BTK Inhibition (Ramos cellular).
Type: cell-based, human
Experimental: Compounds I-2, I-4, and I-7 were assayed in Ramos human Burkitt lymphoma cells. Ramos cells were grown in suspension in T225 flasks, spun down, resuspended in 50 ml serum-free media and incubated for 1 hour. Compound was added to Ramos cells in serum free media to a final concentration of 1, 0.1, 0.01, or 0.001 μM. Ramos cells were incubated with compound for 1 hour, washed again and resuspended in 100 ul serum-free media. Cells were then stimulated with 1 μg of goat F(ab′)2 Anti-Human IgM and incubated on ice for 10 minutes to activate B cell receptor signaling pathways. After 10 minutes, the cells were washed once with PBS and then lysed on ice with Invitrogen Cell Extraction buffer. 16 μg total protein from lysates were loaded on gel and blots were probed for phosphorylation of the BTK substrate PLCγ2.

Row | SMILES | IC50 [µM]
1 | C=CC(=O)N1CCOc2ccc(Nc3nc(Nc4ccc(OC)nc4)ncc3C(C)=O)cc21 [Compound I-170, 1-{6-[5-Acetyl-2-(6-methoxy-pyridin-3-ylamino)-pyrimidin-4-ylamino]-2,3-dihydro-benzo[1,4]oxazin-4-yl}-propenone] | 0.01 to 0.1
2 | C=CC(=O)Nc1cccc(Oc2nc(Nc3ccc(OC)nc3)ncc2C(C)=O)c1 [Compound I-188, N-{3-[5-Acetyl-2-(6-methoxy-pyridin-3-ylamino)-pyrimidin-4-yloxy]-phenyl}-acrylamide] | < 0.01
3 | C=CC(=O)Nc1cccc(Nc2nc(Nc3ccc(OCCOC)cc3)ncc2C2CC2)c1 [Compound I-139, N-(3-(5-cyclopropyl-2-(4-(2-methoxyethoxy)phenylamino)pyrimidin-4-ylamino)phenyl)acrylamide] | 0.01 to 0.1
4 | C=CC(=O)Nc1cccc(Nc2nc(Nc3cccc(OC)c3)ncc2OC)c1 [Compound I-158, N-(3-(5-methoxy-2-(3-methoxyphenylamino)pyrimidin-4-ylamino)phenyl)acrylamide] | 0.01 to 0.1
5 | C=CC(=O)Nc1cccc(Nc2nc(Nc3ccc(OC4CCC4)nc3)ncc2F)c1 [Compound I-79, N-(3-(2-(6-cyclobutoxypyridin-3-ylamino)-5-fluoropyrimidin-4-ylamino)phenyl)acrylamide] | < 0.01
6 | C=CC(=O)N1CCOc2ccc(Nc3nc(Nc4ccc(N(C)C(=O)C(F)(F)F)nc4)ncc3C(C)=O)cc21 [Compound I-142, N-(5-(5-acetyl-4-(4-acryloyl-3,4-dihydro-2H-benzo[b][1,4]oxazin-6-ylamino)pyrimidin-2-ylamino)pyridin-2-yl)-2,2,2-trifluoro-N-methylacetamide] | 0.01 to 0.1
7 | C=CC(=O)N1CCc2cc(Nc3nc(Nc4cccc(S(N)(=O)=O)c4)ncc3C)ccc2C1 [Compound I-40, 3-(4-(2-acryloyl-1,2,3,4-tetrahydroisoquinolin-6-ylamino)-5-methylpyrimidin-2-ylamino)benzenesulfonamide] | 0.01 to 0.1
8 | C=CC(=O)Nc1cccc(Oc2nc(Nc3cccc(OC)c3)ncc2C(=O)NC2CC2)c1 [Compound I-177, 4-(3-acrylamidophenoxy)-2-(3-methoxyphenylamino)-pyrimidine-5-carboxylic acid cyclopropylamide] | 0.1 to 1
9 | C=CC(=O)Nc1cccc(Nc2nc(Nc3ccc(OCCO)nc3)ncc2C(C)=O)c1 [Compound I-121, N-(3-{5-Acetyl-2-[6-(2-hydroxy-ethoxy)-pyridin-3-ylamino]-pyrimidin-4-ylamino}-phenyl)-acrylamide] | 0.01 to 0.1
10 | C=CC(=O)Nc1cccc(Nc2nc(Nc3ccc(OC)nc3)ncc2C#N)c1 [Compound I-173, N-(3-(5-cyano-2-(6-methoxypyridin-3-ylamino)pyrimidin-4-ylamino)phenyl)acrylamide] | < 0.01
11 | C=CC(=O)Nc1cccc(Oc2nc(Nc3ccc(OC)nc3)ncc2C(=O)Nc2ccccc2)c1 [Compound I-159, 4-(3-acrylamidophenoxy)-2-(6-methoxypyridin-3-ylamino)-pyrimidine-5-carboxylic acid phenylamide] | 0.1 to 1
12 | C=CC(=O)Nc1cccc(Nc2nc(Nc3cccc(OCCCN4CCOCC4)c3)ncc2F)c1 [Compound I-208, N-(3-(5-fluoro-2-(3-(3-morpholinopropoxy)phenylamino)pyrimidin-4-ylamino)phenyl)acrylamide] | 0.01 to 0.1
13 | C=CC(=O)Nc1cccc(Nc2ncc(F)c(Nc3cccc(C)c3)n2)c1 [Compound I-3, N-(3-(5-fluoro-4-(m-tolylamino)pyrimidin-2-ylamino)phenyl) acrylamide] | 0.01 to 0.1
14 | C=CC(=O)Nc1cc(Nc2nc(Nc3ccc(OC(C)C)nc3)ncc2F)ccc1Cl [Compound I-107, N-(2-chloro-5-(5-fluoro-2-(6-isopropoxypyridin-3-ylamino)pyrimidin-4-ylamino)phenyl)acrylamide] | 0.01 to 0.1
15 | COc1ccc(Nc2ncc(F)c(Nc3cccc(NC(=O)/C=C/CN(C)C)c3)n2)cn1 [Compound I-125, (E)-4-(dimethylamino)-N-(3-(5-fluoro-2-(6-methoxypyridin-3-ylamino)pyrimidin-4-ylamino)phenyl)but-2-enamide] | 0.01 to 0.1
16 | C=CC(=O)N1CCOc2ccc(Nc3nc(Nc4ccc(N5CCCC5=O)cc4)ncc3C(C)=O)cc21 [Compound I-152, 1-{4-[5-Acetyl-4-(4-acryloyl-3,4-dihydro-2H-benzo[1,4]oxazin-6-ylamino)-pyrimidin-2-ylamino]-phenyl}-pyrrolidin-2-one] | 0.01 to 0.1
17 | C=CC(=O)Nc1cccc(Nc2nc(Nc3ccc(Cl)c(OCC(C)(C)O)c3)ncc2F)c1 [Compound I-249, N-(3-(2-(4-chloro-3-(2-hydroxy-2-methylpropoxy)phenylamino)-5-fluoropyrimidin-4-ylamino)phenyl)acrylamide] | < 0.01
18 | C=CC(=O)Nc1cccc(Nc2nc(Nc3cccc(OCCCNC(=O)OC(C)(C)C)c3)ncc2C)c1 [Compound I-45, tert-butyl 3-(3-(4-(3-acrylamidophenylamino)-5-methylpyrimidin-2-ylamino)phenoxy)propylcarbamate] | < 0.01
19 | C=CC(=O)Nc1cccc(Nc2nc(Nc3ccc(OC)nc3)ncc2C2CC2)c1 [Compound I-167, N-(3-(5-cyclopropyl-2-(6-methoxypyridin-3-ylamino)pyrimidin-4-ylamino)phenyl)acrylamide] | 0.01 to 0.1
20 | C=CC(=O)Nc1cccc(Nc2nc(Nc3ccc(OCCOC)nc3)ncc2C(C)=O)c1 [Compound I-122, N-(3-{5-Acetyl-2-[6-(2-methoxy-ethoxy)-pyridin-3-ylamino]-pyrimidin-4-ylamino}-phenyl)-acrylamide] | < 0.01
21 | C=CC(=O)Nc1cccc(Nc2nc(Nc3ccc(OC)nc3)ncc2C(C)=O)c1 [Compound I-189, N-{3-[5-Acetyl-2-(6-methoxy-pyridin-3-ylamino)-pyrimidin-4-ylamino]-phenyl}-acrylamide] | 0.01 to 0.1
22 | C=CC(=O)Nc1cccc(Nc2nc(Nc3ccc(OCc4ccccn4)c(Cl)c3)ncc2F)c1 [Compound I-86, N-(3-(2-(3-chloro-4-(pyridin-2-ylmethoxy)phenylamino)-5-fluoropyrimidin-4-ylamino)phenyl)acrylamide] | < 0.01
23 | C=CC(=O)Nc1cccc(Oc2nc(Nc3ccc(OC)nc3)ncc2C)c1 [Compound I-186, N-(3-(2-(6-methoxypyridin-3-ylamino)-5-methylpyrimidin-4-yloxy)phenyl)acrylamide] | < 0.01
24 | C=CC(=O)N1CCC[C@@H](Nc2nc(Nc3ccc(OC)nc3)ncc2F)C1 [Compound I-202, (R)-1-(3-(5-fluoro-2-(6-methoxypyridin-3-ylamino)pyrimidin-4-ylamino)piperidin-1-yl)prop-2-en-1-one] | 0.1 to 1
25 | C=CC(=O)Nc1cccc(Nc2nc(Nc3cccc(OCCN(C)C)c3)ncc2F)c1 [Compound I-233, N-(3-(2-(3-(2-(dimethylamino)ethoxy)phenylamino)-5-fluoropyrimidin-4-ylamino)phenyl)acrylamide] | < 0.01
26 | C=CC(=O)N(C)Cc1cccc(Nc2nc(Nc3ccccc3)ncc2C)c1 [Compound I-220, N-methyl-N-(3-(5-methyl-2-(phenylamino)pyrimidin-4-ylamino)benzyl)acrylamide] | 0.01 to 0.1
27 | C=CC(=O)Nc1cccc(Nc2nc(Nc3ccc(OC)c(OC)c3)ncc2F)c1 [Compound I-134, 4-(3acrylamidophenylamino)-5-fluoro-2-(3,4-dimethoxyphenylamino)-pyrimidine] | 0.01 to 0.1
